Measurements taken from patent US20100040552A1, “METHODS TO EVALUATE GLUCOCORTICOID RECEPTOR AGONISTS AND ANTAGONISTS FOR EFFECTS ON NEURON-LIKE CELLS” (ROSETTA INPHARMATICS LLC, priority 2005, published 2010).
Blank lines part the entries; values can stand above or below the molecule they belong to.

How the values were obtained:
CA77 cells [1] = test: CA77 cell microarray profiling; format: cell-based, rat
Procedure: In order to reduce false positives, progesterone, estradiol, and aldosterone served as out-groups for non-specific effects. Samples were collected at both 6 hours and 24 hours after contacting the CA77 cells with a compound.

CA77 cells [2] = test: CA77 cell assay, real-time RT-PCR (TaqMan); format: cell-based, rat
Procedure: Assay: CA77 cells were plated into 96 well tissue culture dishes at a density of 8×10^4 cells per well in 200 μl of PM and the cultures maintained in a humidified air atmosphere (7.5% CO2) at 37° C. This media was aspirated after 24 hours and replaced with 200 μl of GM and the cultures incubated as before, for an additional 48 hours, at which time the cultures were at approximately 90% confluency.
For the evaluation of agonist activity, the GM was aspirated, replaced with 200 μl of fresh GM containing concentrations of a drug ranging from 0.1 nM to 10,000 nM in a 10-fold dilution series. Control wells of 0 nM drug in GM and 0.1% DMSO in GM were included in the series for each drug. Each drug concentration and the two controls were evaluated on 4 wells. The cultures were maintained in a humidified air atmosphere (7.5% CO2) at 37° C. for 24 hours.
Control wells of 0 nM drug in GM containing 250 nM corticosterone and 0.1% DMSO in GM (without corticosterone) were included in the series for each drug. Each drug concentration and the two controls were evaluated on 4 wells. The cultures were maintained in a humidified air atmosphere (7.5% CO2) at 37° C. for 24 hours.
Lysis of Cells and Isolation of mRNA: Two methods were employed for the lysis of the cells and the isolation of mRNA at the end of the 24-hour incubation with the drugs.
One method was the mRNA Catcher™ Method (using Kit number 37001, sold by Invitrogen Corporation). The GM was aspirated from the cells, the cell monolayer was washed once with PBS (product number 10010, sold by Invitrogen Corporation), and then the cells were lysed in 30 μl of the kit lysis buffer containing 1% β-ME for 5 minutes at room temperature. The lysates were snap frozen in the 96-well plate by placing the plate on dry ice pellets, and the plate was then stored at −80° C.
The lysates were thawed at room temperature and then transferred into individual wells in the mRNA Catcher™ plate. The plate was covered and incubated for 90 minutes at room temperature for RNA hybridization. […]

[3] = molecular target: T1, MR (mineralocorticoid receptor) (Homo sapiens, UniProt P08235); test: MR binding study
T1 sequence (P08235 1-984): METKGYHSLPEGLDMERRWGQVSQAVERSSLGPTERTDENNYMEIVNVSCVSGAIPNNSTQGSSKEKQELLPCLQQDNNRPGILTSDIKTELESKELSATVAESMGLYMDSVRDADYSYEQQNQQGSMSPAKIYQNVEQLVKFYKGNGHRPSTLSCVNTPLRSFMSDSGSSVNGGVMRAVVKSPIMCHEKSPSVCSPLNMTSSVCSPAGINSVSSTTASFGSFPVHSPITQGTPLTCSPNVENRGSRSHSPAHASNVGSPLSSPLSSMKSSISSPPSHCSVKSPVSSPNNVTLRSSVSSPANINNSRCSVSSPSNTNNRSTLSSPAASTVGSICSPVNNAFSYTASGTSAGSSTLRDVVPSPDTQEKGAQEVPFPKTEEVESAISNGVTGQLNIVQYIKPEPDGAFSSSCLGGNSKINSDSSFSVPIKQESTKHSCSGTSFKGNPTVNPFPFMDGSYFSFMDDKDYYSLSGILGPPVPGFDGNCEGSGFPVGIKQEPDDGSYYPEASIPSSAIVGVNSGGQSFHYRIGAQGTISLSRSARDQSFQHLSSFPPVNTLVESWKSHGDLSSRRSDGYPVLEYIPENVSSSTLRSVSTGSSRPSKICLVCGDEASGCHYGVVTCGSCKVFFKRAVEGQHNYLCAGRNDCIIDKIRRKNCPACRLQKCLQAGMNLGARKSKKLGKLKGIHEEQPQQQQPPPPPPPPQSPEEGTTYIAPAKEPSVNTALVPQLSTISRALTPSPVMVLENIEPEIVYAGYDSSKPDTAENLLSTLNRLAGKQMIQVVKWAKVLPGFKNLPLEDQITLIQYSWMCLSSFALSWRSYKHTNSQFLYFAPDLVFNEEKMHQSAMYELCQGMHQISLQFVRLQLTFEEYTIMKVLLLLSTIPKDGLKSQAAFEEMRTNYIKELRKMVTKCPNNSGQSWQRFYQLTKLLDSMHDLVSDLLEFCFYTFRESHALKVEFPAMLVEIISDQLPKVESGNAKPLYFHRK
Source text: The following abbreviations are used in Table II: MR, mineralocorticoid receptor; GR, glucocorticoid receptor; and PR, progesterone receptor.

A549 cells = test: A549 cell molecular profiling experiment; format: cell-based; conditions: for Up-regulated genes in category DMSO (<0%) / Up-regulated genes in category Full (≧90%) / Up-regulated genes in category High (66.7-90%) / Up-regulated genes in category Low (0-33.3%) / Up-regulated genes in category Middle (33.3-66.7%): set of 1091 genes; for Down-regulated genes in category DMSO (<0%) / Down-regulated genes in category Full (≧90%) / Down-regulated genes in category High (66.7-90%) / Down-regulated genes in category Low (0-33.3%) / Down-regulated genes in category Middle (33.3-66.7%): set of 1249 genes
Glucocorticoid Receptor [4] = molecular target: T2, Glucocorticoid Receptor (Homo sapiens, UniProt P04150); test: Classification of effect on the glucocorticoid receptor; format: cell-based; set-up: host or cells: COS cells; conditions: as assessed by MDA and A549 transactivation and COS transrepression assays
T2 sequence (P04150 1-777): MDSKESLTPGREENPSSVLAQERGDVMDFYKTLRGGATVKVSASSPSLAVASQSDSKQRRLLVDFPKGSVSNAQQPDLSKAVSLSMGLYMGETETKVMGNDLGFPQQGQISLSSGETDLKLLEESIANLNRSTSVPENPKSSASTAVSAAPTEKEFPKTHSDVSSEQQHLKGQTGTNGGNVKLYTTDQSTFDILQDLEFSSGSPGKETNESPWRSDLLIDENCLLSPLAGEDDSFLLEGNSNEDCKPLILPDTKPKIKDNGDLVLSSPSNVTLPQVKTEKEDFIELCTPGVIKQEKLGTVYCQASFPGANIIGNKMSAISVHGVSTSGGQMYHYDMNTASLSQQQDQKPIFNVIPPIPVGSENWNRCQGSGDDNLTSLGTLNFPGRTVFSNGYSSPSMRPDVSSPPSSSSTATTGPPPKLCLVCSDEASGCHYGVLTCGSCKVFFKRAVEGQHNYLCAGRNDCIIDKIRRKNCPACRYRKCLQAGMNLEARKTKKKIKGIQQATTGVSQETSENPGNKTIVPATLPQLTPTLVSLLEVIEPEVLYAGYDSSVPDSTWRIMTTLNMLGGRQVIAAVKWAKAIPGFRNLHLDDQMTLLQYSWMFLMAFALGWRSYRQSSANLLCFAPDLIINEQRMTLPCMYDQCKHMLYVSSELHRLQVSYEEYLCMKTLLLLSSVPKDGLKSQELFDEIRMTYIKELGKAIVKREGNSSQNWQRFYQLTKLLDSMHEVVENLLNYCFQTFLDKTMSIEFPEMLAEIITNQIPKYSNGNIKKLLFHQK

Glucocorticoid Receptor [5] = molecular target: T2, Glucocorticoid Receptor; test: Transrepression assay, COS cells; format: cell-based; set-up: host or cells: COS cells
Sult1a1 = test: In vivo Sult1a1 expression assay (Example 2); set-up: species or system rat; conditions: co-administered with dexamethasone
Procedure: Methods: […] […] The rats were sacrificed 6 hours after the final dose and the hippocampus, raphe and caudate nucleus were dissected and placed in […]® (Qiagen, Valencia, Calif.) for 24 hours. The tissue was then placed in a fresh tube and stored at -80 C. Total RNA was prepared using Trizol® (InVitrogen, Carlsbad, Calif.) using the manufacturer's standard protocol. The total RNA was DNase treated and cDNA was made using the methods described in Example 1 in connection with CA77 cell cDNA preparation.

Glucocorticoid Receptor [6] = molecular target: T2, Glucocorticoid Receptor; test: Transactivation assay, A549 cells; format: cell-based
Glucocorticoid Receptor [7] = molecular target: T2, Glucocorticoid Receptor; test: Transactivation assay, MDA cells; format: cell-based; set-up: host or cells: MDA cells; conditions: maximal response
[8] = test system: RGS2, RGS4 and Sult1a1 gene expression; test: In vivo RT-PCR of rat caudate and raphe nucleus (Example 1)
Source text: Cross-hatched bars represent RGS2 gene expression. Unhatched bars represent RGS4 gene expression. ** p=0.003. * p=0.001.
Cross-hatched bars represent Sult1a1 gene expression in the caudate nucleus. Unhatched bars represent Sult1a1 gene expression in the raphe nucleus. *p<0.001.

RGS2 and RGS4 mRNA = conditions: cited from earlier work

SMILES: C[C@]12CCC(=O)C=C1CC[C@@H]1[C@@H]2[C@@H](O)C[C@]2(C=O)[C@@H](C(=O)CO)CC[C@@H]12 [aldosterone]
- Activity in the GR agonist signature at 6 hours (CA77 cells [1]; 6 hours): little or no activity
- Presence of the GR agonist signature (CA77 cells [1]; response at 24 hours): weakly present

- EC50 (CA77 cells [2]; Rattus norvegicus, CA77 cell assay): 250 nM
SMILES: C[C@]12C[C@H](O)[C@H]3[C@@H](CCC4=CC(=O)CC[C@@]43C)[C@@H]1CC[C@@H]2C(=O)CO [corticosterone]

- IC50 [3]: 0.98 nM
- Effect on the glucocorticoid receptor (degree of agonist activity) (Glucocorticoid Receptor [4]): full agonist activity
SMILES: C[C@]12C=CC(=O)C=C1CC[C@@H]1[C@@H]2[C@@H](O)C[C@@]2(C)[C@H]1CC[C@]2(O)C(=O)CO [Prednisolone, prednisolone]
- Up-regulated genes in category DMSO (<0%) (A549 cells; 100 nM): 0
- Up-regulated genes in category Full (≧90%) (A549 cells; 100 nM): 940
- Up-regulated genes in category High (66.7-90%) (A549 cells; 100 nM): 150
- Up-regulated genes in category Low (0-33.3%) (A549 cells; 100 nM): 0
- Up-regulated genes in category Middle (33.3-66.7%) (A549 cells; 100 nM): 1
- Down-regulated genes in category DMSO (<0%) (A549 cells; 100 nM): 0
- Down-regulated genes in category Full (≧90%) (A549 cells; 100 nM): 1140
- Down-regulated genes in category High (66.7-90%) (A549 cells; 100 nM): 109
- Down-regulated genes in category Low (0-33.3%) (A549 cells; 100 nM): 0
- Down-regulated genes in category Middle (33.3-66.7%) (A549 cells; 100 nM): 0

SMILES: CC#C[C@]1(O)CC[C@H]2[C@@H]3CCC4=CC(=O)CCC4=C3[C@@H](c3ccc(N(C)C)cc3)C[C@@]21C [RU-486, mifepristone]
- Emax at 1 µM (Glucocorticoid Receptor [5]; COS, read-out: Transrepression, COS % Emax, 1 uM): 40%
- Effect on up-regulation of RGS2, Sult1a1, IL6R and SGK by a GR agonist (CA77 cells [2]; CA77 cells, co-administered with dexamethasone): reversal of this effect
- Effect on dexamethasone-induced Sult1a1 upregulation in the hippocampus (Sult1a1): reversal of this effect
- Up-regulated genes in category DMSO (<0%) (A549 cells; 1 μm): 287
- Up-regulated genes in category Full (≧90%) (A549 cells; 1 μm): 38
- Up-regulated genes in category High (66.7-90%) (A549 cells; 1 μm): 63
- Up-regulated genes in category Low (0-33.3%) (A549 cells; 1 μm): 449
- Up-regulated genes in category Middle (33.3-66.7%) (A549 cells; 1 μm): 254
- Down-regulated genes in category DMSO (<0%) (A549 cells; 1 μm): 454
- Down-regulated genes in category Full (≧90%) (A549 cells; 1 μm): 41
- Down-regulated genes in category High (66.7-90%) (A549 cells; 1 μm): 70
- Down-regulated genes in category Low (0-33.3%) (A549 cells; 1 μm): 418
- Down-regulated genes in category Middle (33.3-66.7%) (A549 cells; 1 μm): 266
- Effect on the glucocorticoid receptor (degree of agonist activity) (Glucocorticoid Receptor [4]): low partial agonist activity
- Emax (Glucocorticoid Receptor [6]; A549, read-out: Transactivation, A549 Emax): 90%

- Transrepression, COS % Emax, 0.3 μM (Glucocorticoid Receptor [5]; 0.3 μM): 100%
- Transrepression, COS % Emax, 1 uM (Glucocorticoid Receptor [5]; 1 uM): 100%
- Transactivation, A549 Emax (Glucocorticoid Receptor [6]; maximal response): 124%
- Transactivation, MDA Emax (Glucocorticoid Receptor [7]): 104%
SMILES: C[C@H]1C[C@@H]2[C@H]([C@@H](O)C[C@@]3(C)[C@H]2CC[C@]3(O)C(=O)CO)[C@@]2(C)C=CC(=O)C=C12 [M-Prednisolone, 6α-methylprednisolone]
- RGS4 expression in caudate nucleus ([8]; down-regulated): about 50 % of control levels
- RGS2 expression in caudate nucleus ([8]; upregulated vs vehicle): 2 fold

SMILES: O=C(CCCN1CCC(O)(c2ccc(Cl)cc2)CC1)c1ccc(F)cc1 [haloperidol]
- RGS2 mRNA (RGS2 and RGS4 mRNA): up-regulated
- RGS4 mRNA levels (RGS2 and RGS4 mRNA): down-regulation
